Converted amounts (≈) assume the structure as drawn. Like-named read-outs stand apart in the source and are kept apart here.

This data set concerns Halotydeus destructor susceptible population. Kind of data set: Coated plastic vial bioassay, redlegged earth mite, susceptible population. It is filed as in vivo. To be noted: for mortality at 300 µg/mL: 300 mg a.i./L. On the procedure: The efficacy of flavesone against H. destructor was assessed using the glass vial technique developed by Hoffmann et al. (1997, Exp. Appl. Acarol., 21:151-162), adapted for plastic vials. A susceptible population of mites was collected from capeweed (Arctotheca calendula) at a Victorian site (37° 40′33″S, 145° 07′ 45″E) that had no known history of insecticide application. Following collection, samples were stored in small plastic containers with leaf material and paper towel to absorb excess moisture. Containers were kept at 4° C. prior to testing.
The test compositions included 0.1% Tween 20 non-ionic surfactant to aid the spread of insecticides when coating plastic vials. This concentration of Tween 20 has been previously shown to have no toxic effect on H. destructor. For each insecticide concentration tested, 3, 10, 30, 100, 300, 1000, 3000 and 10000 mg a.i./L (ppm), approximately 10 mL of solution was poured into a 15 mL plastic vial and swirled to ensure a complete coating, with excess liquid removed. Eight vials were coated per concentration and were left to dry overnight. Control vials were treated in the same way but with water used in place of test composition.
Eight susceptible H. destructor mites were then placed into each vial along with a leaf of common vetch (Vicia sativa). The leaf was added to provide food and increase humidity. Vials were then sealed with a lid and placed at 18° C. After 4, 6, 8 and 24 hours of exposure, the mites were scored as alive (moving freely), incapacitated (inhibited movement), or dead (no movement over a 5 second period). […]
The data produced in the assays were assessed for concentrations that caused 50, 90 and 99% mortality (lethal concentration, LC), together with 95% confidence intervals (CIs) and were estimated from observations of mortality after 24 hours exposure using a binomial logistic regression (Robertson & Preisler, 1992, Pesticide Bioassays with Arthropods. CRC: Boca Raton; Venables & Ripley, 2002, Modern Applied Statistics with S. Springer: New York). Population differences were tested by comparing the change in model deviance with and without the population factor (different regression intercepts for each population). Differences in regression slopes between populations were tested by comparing the change in model deviance with and without the population×dose interaction term. The resistance ratio of the insecticide-resistant population was estimated as the ratio of its LC50 to that of the susceptible population. All analyses were performed using R 3.3. (R Core Team 2017, R: A language and environment for statistical computing. R Foundation for Statistical Computing, Vienna, Austria. http://www.R-project.org).

Where [1] appears, read: Susceptible population, 24 hours exposure.

Take `CC(C)C(=O)C1C(=O)C(C)(C)C(=O)C(C)(C)C1=O` [Flavesone, 1-isobutyroyl-3,3,5,5-tetramethylcyclohexane-2,4,6-trione]: under “Example 9, all application rates above 300 mg a.i./L, by 4 hours exposure”, the mortality (commonly the percentage killed) came out at 100%. The mortality at 300 µg/mL was 55% (Halotydeus destructor, Example 9, 4 hours of exposure, read-out: mortality (average)) and 100% (Halotydeus destructor, Example 9, by 8 hours of exposure, read-out: mortality). For the same compound, where the note is “Halotydeus destructor, Susceptible population, 24 hours exposure, read-out: LC50 (mg a.i./L)”, the LC50 stood at 40.6 µg/mL (≈ 161 µM). Moreover, under setting [1], the “LC90 (mg a.i./L)” value came to 142.55 mg a.i./L. Further, under setting [1], the “LC99 (mg a.i./L)” value was 561.35 mg a.i./L.
